± gives the expanded uncertainty stated by the source.
Tests used:
[1] = Liquid
[2] = xn = mol fraction of the nth substance listed; conditions: Liquid, x1 = 1

Compound `CCO` [ethanol] has a mass density ([1]; 293.15 K) of 790.2 ± 2.2 kg/m3, a viscosity ([1]; 293.15 K) of 1.21 ± 0.062 mPa·s and a mass density ([1]; 298.15 K) of 785.9 ± 2.2 kg/m3. It also gave a viscosity ([1]; 298.15 K) of 1.099 ± 0.059 mPa·s.

`CCCCCC` [hexane] showed a mass density ([1]; 293.15 K) of 659.8 ± 2.8 kg/m3, a viscosity ([1]; 293.15 K) of 0.2979 ± 0.038 mPa·s and a mass density ([1]; 298.15 K) of 655.3 ± 2.8 kg/m3. The viscosity ([1]; 298.15 K) was 0.2865 ± 0.038 mPa·s.

Compound `CCO` [ethanol] + CCCCCC has a mass density ([2]; 293.15 K) of 790.2 ± 2.2 kg/m3, a viscosity ([2]; 293.15 K) of 1.21 ± 0.062 mPa·s and a mass density ([2]; 298.15 K) of 785.9 ± 2.2 kg/m3. It also gave a viscosity ([2]; 298.15 K) of 1.099 ± 0.059 mPa·s.

With `CCO` [ethanol] + CCCCCCCC the mass density ([2]; 293.15 K) was 790.2 ± 7.5 kg/m3 and the mass density ([2]; 298.15 K) was 785.9 ± 7.6 kg/m3.

With `CCCCCCCC` [octane] the mass density ([1]; 293.15 K) was 705.6 ± 9.5 kg/m3, the viscosity ([1]; 293.15 K) was 0.5374 ± 0.023 mPa·s and the mass density ([1]; 298.15 K) was 701.6 ± 9.6 kg/m3. For the same compound, the viscosity ([1]; 298.15 K) was 0.5087 ± 0.022 mPa·s.

`CCCCCCCCCC` [decane] gave a mass density ([1]; 293.15 K) of 731 ± 2.4 kg/m3, a viscosity ([1]; 293.15 K) of 0.9133 ± 0.028 mPa·s and a mass density ([1]; 298.15 K) of 727.2 ± 2.4 kg/m3. For the same compound, the viscosity ([1]; 298.15 K) was 0.8509 ± 0.027 mPa·s.

From the NIST ThermoML archive (doi:10.1021/je800925v)
